Data: PMC5581033, “Targeting aldehyde dehydrogenase activity in head and neck squamous cell carcinoma with a novel small molecule inhibitor” (Oncotarget, 2017)

Legend:
Assay in all cases: purified recombinant isozyme activity assay, NADH formation at […] nm with acetaldehyde and NAD+
Format in all cases: biochemical
ALDH2 = biological target: T1, ALDH2 (Homo sapiens, UniProt P05091)
T1 sequence (P05091 18-517): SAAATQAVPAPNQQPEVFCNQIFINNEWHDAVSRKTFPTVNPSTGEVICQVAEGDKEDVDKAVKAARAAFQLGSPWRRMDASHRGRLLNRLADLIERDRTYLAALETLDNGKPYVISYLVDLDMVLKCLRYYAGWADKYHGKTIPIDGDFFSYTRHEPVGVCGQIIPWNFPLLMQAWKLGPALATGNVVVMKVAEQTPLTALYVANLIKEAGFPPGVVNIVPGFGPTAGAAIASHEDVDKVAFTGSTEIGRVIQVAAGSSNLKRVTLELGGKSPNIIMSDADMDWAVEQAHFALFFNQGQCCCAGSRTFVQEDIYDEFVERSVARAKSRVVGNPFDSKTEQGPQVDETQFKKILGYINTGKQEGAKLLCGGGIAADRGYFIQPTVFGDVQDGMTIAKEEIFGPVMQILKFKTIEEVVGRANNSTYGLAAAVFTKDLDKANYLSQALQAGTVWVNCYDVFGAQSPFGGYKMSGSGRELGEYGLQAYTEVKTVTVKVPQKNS

ALDH1A1 = biological target: T2, ALDH1A1 (Homo sapiens, UniProt P00352)
T2 sequence (P00352 2-501): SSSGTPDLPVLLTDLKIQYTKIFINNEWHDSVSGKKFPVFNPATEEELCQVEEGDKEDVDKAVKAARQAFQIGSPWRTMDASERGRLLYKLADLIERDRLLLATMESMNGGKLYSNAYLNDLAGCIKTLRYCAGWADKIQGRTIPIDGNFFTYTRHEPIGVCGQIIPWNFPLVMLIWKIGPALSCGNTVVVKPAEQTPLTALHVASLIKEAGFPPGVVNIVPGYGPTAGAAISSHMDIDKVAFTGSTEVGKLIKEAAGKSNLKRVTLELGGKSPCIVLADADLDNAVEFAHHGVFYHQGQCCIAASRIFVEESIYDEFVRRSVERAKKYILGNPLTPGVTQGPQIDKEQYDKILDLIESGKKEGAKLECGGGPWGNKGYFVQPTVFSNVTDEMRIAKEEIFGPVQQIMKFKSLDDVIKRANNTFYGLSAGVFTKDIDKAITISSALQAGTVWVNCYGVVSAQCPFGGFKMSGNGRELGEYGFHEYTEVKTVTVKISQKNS

ALDH3A1 = biological target: T3, ALDH3A1 (Homo sapiens, UniProt P30838)
T3 sequence (P30838 2-453): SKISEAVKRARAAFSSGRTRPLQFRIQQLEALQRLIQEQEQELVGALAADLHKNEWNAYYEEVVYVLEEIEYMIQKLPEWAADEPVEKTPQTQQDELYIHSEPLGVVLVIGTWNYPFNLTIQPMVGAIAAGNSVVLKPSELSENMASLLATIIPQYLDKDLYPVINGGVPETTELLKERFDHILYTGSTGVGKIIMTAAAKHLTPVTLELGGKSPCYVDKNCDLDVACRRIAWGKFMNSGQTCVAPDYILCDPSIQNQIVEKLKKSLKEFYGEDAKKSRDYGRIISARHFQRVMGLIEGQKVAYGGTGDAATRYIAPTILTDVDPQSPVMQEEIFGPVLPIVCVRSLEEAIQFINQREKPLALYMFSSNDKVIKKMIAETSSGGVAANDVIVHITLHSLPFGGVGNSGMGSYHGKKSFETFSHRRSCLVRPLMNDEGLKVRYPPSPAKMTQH

Q: How did the IC50 (ALDH2) turn out when `CN(C)CCC(=O)c1ccc(Br)cc1` [Aldi-6, 3-(Dimethylamino)-4′-bromopropiophenone] was run?
A: 0.8 µM

Q: And the IC50 (ALDH1A1)?
A: 0.6 µM

Q: And the IC50 (ALDH3A1)?
A: 1 µM
